Source: PMC9154192 (PLoS Biology, 2022)
Where “and” joins values, the source holds several entries; their conditions need not be identical. Identical values can stand only once. Like-named read-outs stand apart in the source and are kept apart here.

Columns and labels:
[1] = tested on: XDR M. tuberculosis (KMRC 00203–00197); format: cell-based, Mycobacterium tuberculosis; details: for log reduction (CFU): 7 days
XDR M. tuberculosis [2] = test: Luminescence-based microbial cell viability assay; parameters: species or system Mycobacterium tuberculosis
XDR M. tuberculosis [3] = format: cell-based, Mycobacterium tuberculosis
[4] = tested on: GFP-expressing M. tuberculosis; format: cell-based, Mycobacterium tuberculosis; details: 1 μg/ml
in vitro = format: cell-based, murine; details: mouse
Outline: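 Viability determined via tetrazolium-based assays (MTT, WST-1) to gauge cytotoxicity.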

[5] = format: in vivo, Crl:CD SD rats; details: single oral dose up to 2,000 mg/kg, SD rats, 2 weeks
Method: Toxicity studies were conducted at Biotoxtech (Korea) under review and approval from IACUC (170842, 180144, 170889) of Biotoxtech. All animals used in the toxicity test were purchased from OrientBio (Korea).
For acute toxicity study with a single oral administration, 6-week-old Crl:CD SD rats were used. For PP1S, a total of 8 groups (n = 4 rats/group) were used (0, 500, 1,000, and 2,000 mg/kg for females and males, respectively). For PP2S, a total of 4 groups (n = 5 rats/group) were used (0 and 2,000 mg/kg for females and males, respectively). […] Corn oil (Sigma, USA) was used as the vehicle. Control animals were treated only with the same volume of the vehicle.

[6] = Acute oral toxicity test in mice; format: in vivo, BALB/c mice; details: single oral, 5 mice; for Deaths of mice, Days after dosing 0: day 0; for Deaths of mice, Days after dosing 1: day 1; for Deaths of mice, Days after dosing 2: day 2; for Deaths of mice, Days after dosing 3: day 3; for Deaths of mice, Days after dosing 4: day 4; for Deaths of mice, Days after dosing 5: day 5; for Deaths of mice, Days after dosing 6: day 6; for Deaths of mice, Days after dosing 7: day 7; for Deaths of mice, Days after dosing 8: day 8; for Deaths of mice, Days after dosing 9: day 9; for Deaths of mice, Days after dosing 10: day 10; for Deaths of mice, Days after dosing 11: day 11; for Deaths of mice, Days after dosing 12: day 12; for Deaths of mice, Days after dosing 13: day 13; for Deaths of mice, Days after dosing 14: day 14
Method: This experiment was conducted in a toxicity test at Soonchunhyang University's Animal Biological Safety Level 2 (ABSL-2) facility. The study protocol was reviewed and approved by Soonchunhyang University Animal Ethics Committee. Six-week-old female BALB/c were purchased from Koatech (Pyeongtaek, Korea) and five mice per group were tested. Drugs were orally administered once using a zonde and observed for two weeks. Corn oil (Sigma, USA) was used as the vehicle.

CCCCOc1ccc2cc(CN3C(=O)CC[C@H]3C(=O)OC)c3cc(OC)c(OC)cc3c2c1 [PP2S, Methyl (S)-1-((3-butoxy-6,7-dimethoxyphenanthren-9-yl)methyl)-5-oxopyrrolidine-2-carboxylate]
CFU (log) [1]: 3.65 and 3.73
CFU (replicates1-3), single values [1]: 5500 CFU and 1100 CFU and 2900 CFU and 2700 CFU and 6500 CFU and 5100 CFU and 5400 CFU and 6100 CFU and 5320 CFU and 9100 CFU and 3200 CFU (2×) and 3600 CFU and 3300 CFU and 3400 CFU and 2100 CFU and 12800 CFU and 8170 CFU
log reduction (CFU) ([1]; at 0.8 μg/ml): 1.8
log reduction (CFU) ([1]; at 1.6 μg/ml): 1.9
RLU/50ul (replicates1-3), single values (XDR M. tuberculosis [2]): 50 RLU/50ul and 140 RLU/50ul and 80 RLU/50ul and 90 RLU/50ul (2×) and 120 RLU/50ul and 70 RLU/50ul and 130 RLU/50ul and 40 RLU/50ul and 260 RLU/50ul and 290 RLU/50ul and 430 RLU/50ul and 420 RLU/50ul and 460 RLU/50ul and 330 RLU/50ul and 390 RLU/50ul and 410 RLU/50ul and 220 RLU/50ul and 640 RLU/50ul and 720 RLU/50ul and 540 RLU/50ul and 550 RLU/50ul and 580 RLU/50ul and 450 RLU/50ul (2×) and 590 RLU/50ul and 630 RLU/50ul
concentration with significant antitubercular effect (XDR M. tuberculosis [2]): 0.39 µg/mL
growth of M. tuberculosis in macrophages (CFU) (XDR M. tuberculosis [3]): significantly inhibited the growth
green signal of GFP-expressing M. tuberculosis in infected cells [4]: decrease in green signal
CC50 (in vitro; L929): > 500 µg/mL
CC50 (in vitro; Raw264.7): > 500 µg/mL
change in body weight compared to control group [5]: no significant change
clinical symptoms and death [5]: not observed
Deaths of mice, Days after dosing 0 ([6]; Dose 500 mg/kg): 0
Deaths of mice, Days after dosing 1 ([6]; Dose 500 mg/kg): 0
Deaths of mice, Days after dosing 2 ([6]; Dose 500 mg/kg): 0
Deaths of mice, Days after dosing 3 ([6]; Dose 500 mg/kg): 0
Deaths of mice, Days after dosing 4 ([6]; Dose 500 mg/kg): 0
Deaths of mice, Days after dosing 5 ([6]; Dose 500 mg/kg): 0
Deaths of mice, Days after dosing 6 ([6]; Dose 500 mg/kg): 0
Deaths of mice, Days after dosing 7 ([6]; Dose 500 mg/kg): 0
Deaths of mice, Days after dosing 8 ([6]; Dose 500 mg/kg): 0
Deaths of mice, Days after dosing 9 ([6]; Dose 500 mg/kg): 0
Deaths of mice, Days after dosing 10 ([6]; Dose 500 mg/kg): 0
Deaths of mice, Days after dosing 11 ([6]; Dose 500 mg/kg): 0
Deaths of mice, Days after dosing 12 ([6]; Dose 500 mg/kg): 0
Deaths of mice, Days after dosing 13 ([6]; Dose 500 mg/kg): 0
Deaths of mice, Days after dosing 14 ([6]; Dose 500 mg/kg): 0
Deaths of mice, Days after dosing 0 ([6]; Dose 1000 mg/kg): 0
Deaths of mice, Days after dosing 1 ([6]; Dose 1000 mg/kg): 0
Deaths of mice, Days after dosing 2 ([6]; Dose 1000 mg/kg): 0
Deaths of mice, Days after dosing 3 ([6]; Dose 1000 mg/kg): 0
Deaths of mice, Days after dosing 4 ([6]; Dose 1000 mg/kg): 0
Deaths of mice, Days after dosing 5 ([6]; Dose 1000 mg/kg): 0
Deaths of mice, Days after dosing 6 ([6]; Dose 1000 mg/kg): 0
Deaths of mice, Days after dosing 7 ([6]; Dose 1000 mg/kg): 0
Deaths of mice, Days after dosing 8 ([6]; Dose 1000 mg/kg): 0
Deaths of mice, Days after dosing 9 ([6]; Dose 1000 mg/kg): 0
Deaths of mice, Days after dosing 10 ([6]; Dose 1000 mg/kg): 0
Deaths of mice, Days after dosing 11 ([6]; Dose 1000 mg/kg): 0
Deaths of mice, Days after dosing 12 ([6]; Dose 1000 mg/kg): 0
Deaths of mice, Days after dosing 13 ([6]; Dose 1000 mg/kg): 0
Deaths of mice, Days after dosing 14 ([6]; Dose 1000 mg/kg): 0
Deaths of mice, Days after dosing 0 ([6]; Dose 2000 mg/kg): 0
Deaths of mice, Days after dosing 1 ([6]; Dose 2000 mg/kg): 0
Deaths of mice, Days after dosing 2 ([6]; Dose 2000 mg/kg): 0
Deaths of mice, Days after dosing 3 ([6]; Dose 2000 mg/kg): 0
Deaths of mice, Days after dosing 4 ([6]; Dose 2000 mg/kg): 0
Deaths of mice, Days after dosing 5 ([6]; Dose 2000 mg/kg): 0
Deaths of mice, Days after dosing 6 ([6]; Dose 2000 mg/kg): 0
Deaths of mice, Days after dosing 7 ([6]; Dose 2000 mg/kg): 0
Deaths of mice, Days after dosing 8 ([6]; Dose 2000 mg/kg): 0
Deaths of mice, Days after dosing 9 ([6]; Dose 2000 mg/kg): 0
Deaths of mice, Days after dosing 10 ([6]; Dose 2000 mg/kg): 0
Deaths of mice, Days after dosing 11 ([6]; Dose 2000 mg/kg): 0
Deaths of mice, Days after dosing 12 ([6]; Dose 2000 mg/kg): 0
Deaths of mice, Days after dosing 13 ([6]; Dose 2000 mg/kg): 0
Deaths of mice, Days after dosing 14 ([6]; Dose 2000 mg/kg): 0
